According to paper PMC6155021, “Ancient and modern anticonvulsants act synergistically in a KCNQ potassium channel binding pocket” (Nature Communications, 2018):

Columns and labels:
[1] = biological target: KCNQ3* (KCNQ3-A315T) (Homo sapiens, UniProt O43525, A315T); experiment: cell-based; format: cell-based
Source text: (§1) cRNA transcripts encoding human KCNA1, KCNQ1, KCNQ2, KCNQ3, KCNQ4, or KCNQ5 were generated by in vitro transcription using the T7 polymerase message machine kit (Thermo Fisher Scientific), after vector linearization, from cDNA sub-cloned into plasmids incorporating X. laevis β-globin 5′ and 3′ UTRs flanking the coding region to enhance translation and cRNA stability. cRNA was quantified by spectrophotometry. Mutant cDNAs were generated by site-directed mutagenesis using a QuikChange kit according to manufacturer’s protocol (Stratagene, San Diego, CA) and corresponding cRNAs prepared as above. Defolliculated stage V and VI X. laevis oocytes (Ecocyte Bioscience, Austin, TX) were injected with Kv channel α subunit cRNAs (10 ng total per oocyte). Oocytes were incubated at 16 °C in Barth’s saline solution (Ecocyte) containing penicillin and streptomycin, with daily washing, for 3–5 days prior to two-electrode voltage-clamp (TEVC) recording.
(§2) Oocytes were placed in a small-volume oocyte bath (Warner) and viewed with a dissection microscope. Chemicals were sourced from Sigma. Bath solution was (in mM): 96 NaCl, 4 KCl, 1 MgCl2, 1 CaCl2, 10 HEPES (pH 7.6). […] MTX (DMSO), sorbic acid (ethanol), and glutaconic acid (molecular grade H2O) were stored at −20 °C as 1 M stocks. Oleamide was stored as a 1 mM stock in ethanol at 4 °C. Palmitic acid was conjugated with bovine serum albumin as a 1 mM stock and stored at −20 °C. All compounds were diluted to working concentrations each experimental day. All compounds were introduced to the recording bath via gravity perfusion at a constant flow of 1 ml/min for 3 min prior to recording. Pipettes were of 1–2 MΩ resistance when filled with 3 M KCl. Currents were recorded in response to pulses between −80 and +40 mV at 20 mV intervals, or a single pulse to +40 mV, from a holding potential of −80 mV, to yield current–voltage relationships, current magnitude, and for quantifying activation rate. TEVC data analysis was performed with Clampfit10.2 (Molecular Devices) and Graphpad Prism software (GraphPad, San Diego, CA, USA); values are stated as mean ± SEM. Normalized tail currents were plotted versus prepulse voltage and fitted with a single Boltzmann function:1 g=A1-A2/1+expV12-Vy+A2, where g is the normalized tail conductance, A1 is the initial value at −∞, A2 is the final value at +∞, V1/2 is the half-maximal voltage of activation, and Vs the slope factor. Activation and deactivation kinetics were fitted with single-exponential functions.

[2] = biological target: KCNQ5 (Homo sapiens, UniProt Q9NR82); experiment: cell-based; format: cell-based
Source text: as §1, §2

Sequence of KCNQ3* (KCNQ3-A315T) (O43525 whole entry A315T, looked up): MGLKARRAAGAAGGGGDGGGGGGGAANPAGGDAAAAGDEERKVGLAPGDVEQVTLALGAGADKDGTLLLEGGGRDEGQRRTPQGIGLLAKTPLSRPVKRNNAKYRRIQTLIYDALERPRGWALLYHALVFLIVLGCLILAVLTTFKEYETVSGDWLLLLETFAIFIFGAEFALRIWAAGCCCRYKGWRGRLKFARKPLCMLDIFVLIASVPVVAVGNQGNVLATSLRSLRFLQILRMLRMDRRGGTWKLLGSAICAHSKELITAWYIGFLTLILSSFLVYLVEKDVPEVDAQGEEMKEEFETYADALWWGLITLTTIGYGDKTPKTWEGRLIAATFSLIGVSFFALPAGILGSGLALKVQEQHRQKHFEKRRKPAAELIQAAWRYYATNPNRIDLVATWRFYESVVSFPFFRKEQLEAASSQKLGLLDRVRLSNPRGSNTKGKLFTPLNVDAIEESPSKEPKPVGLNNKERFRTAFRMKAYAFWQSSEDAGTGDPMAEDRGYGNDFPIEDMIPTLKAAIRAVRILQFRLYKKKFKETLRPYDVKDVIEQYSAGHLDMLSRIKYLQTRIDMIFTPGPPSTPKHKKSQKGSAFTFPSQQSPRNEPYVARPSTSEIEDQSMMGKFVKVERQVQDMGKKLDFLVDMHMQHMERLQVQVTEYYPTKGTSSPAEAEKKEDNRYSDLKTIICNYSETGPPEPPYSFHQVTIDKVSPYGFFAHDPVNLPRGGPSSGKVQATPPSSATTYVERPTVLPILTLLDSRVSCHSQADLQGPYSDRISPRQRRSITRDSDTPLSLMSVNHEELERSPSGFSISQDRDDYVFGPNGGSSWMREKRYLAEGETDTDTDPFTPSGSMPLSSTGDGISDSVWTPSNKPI

## CC(=O)c1c(O)c(C)c(O)c(Cc2c(O)c3c(c(C(=O)/C=C/c4ccccc4)c2O)OC(C)(C)C=C3)c1O [MTX, mallotoxin]
[1]
  EC50: 13 µM
[1]; KCNQ3*, 1 µM
  Non-normalized tail current V0.5: -56.1 ± 4.2 mV
  Normalized tail current V0.5: -56.4 ± 1.6 mV
  τ act, -40 mV: 552 ± 98 ms
  τ deact, -80 mV: 290 ± 51 ms
[1]; KCNQ3*, 3 µM
  Non-normalized tail current V0.5: -57.4 ± 5.3 mV
  Normalized tail current V0.5: -57.3 ± 1.4 mV
  τ act, -40 mV: 489 ± 55 ms
  τ deact, -80 mV: 263 ± 29 ms
[1]; KCNQ3*, 10 µM
  Non-normalized tail current V0.5: -59.5 ± 4.2 mV
  Normalized tail current V0.5: -59.5 ± 1.0 mV
  τ act, -40 mV: 421 ± 26 ms
  τ deact, -80 mV: 244 ± 17 ms
[1]; KCNQ3*, 30 µM
  Non-normalized tail current V0.5: -62.1 ± 3.9 mV
  Normalized tail current V0.5: -62.3 ± 1.2 mV
  shift in midpoint voltage of activation: −9 mV
  τ act, -40 mV: 388 ± 20 ms
  τ deact, -80 mV: 240 ± 18 ms
[1]; KCNQ3*, 100 µM
  Non-normalized tail current V0.5: -65.2 ± 3.9 mV
  Normalized tail current V0.5: -66.2 ± 2.1 mV
  τ act, -40 mV: 403 ± 36 ms
  τ deact, -80 mV: 269 ± 30 ms
[2]
  EC50: 67.1 µM
[2]; 100 µM
  KCNQ5 current increase at −60 mV: eight-fold
[2]; KCNQ5, 1 µM
  Non-normalized tail current V0.5: -49.3 ± 1.2 mV
  Normalized tail current V0.5: -49.9 ± 2.1 mV
  Slope: 8.3 ± 2.1 mV
[2]; KCNQ5, 3 µM
  Non-normalized tail current V0.5: -51.7 ± 1.8 mV
  Normalized tail current V0.5: -51.1 ± 2.3 mV
  Slope: 8.5 ± 2.1 mV
[2]; KCNQ5, 10 µM
  Non-normalized tail current V0.5: -51.9 ± 0.8 mV
  Normalized tail current V0.5: -51.5 ± 3.2 mV
  Slope: 8.6 ± 2.9 mV
[2]; KCNQ5, 30 µM
  Non-normalized tail current V0.5: -55.9 ± 0.8 mV
  Normalized tail current V0.5: -55.6 ± 3.8 mV
  Slope: 8.8 ± 3.6 mV
  shift in midpoint voltage of activation: −14 mV
[2]; KCNQ5, 100 µM
  Non-normalized tail current V0.5: -71.1 ± 2.6 mV
  Normalized tail current V0.5: -71.6 ± 2.1 mV
